According to patent US10834926B2, “Insecticide properties of an extract of Sextonia rubra, and the constituents thereof” (Centre National de la Recherche Scientifique, priority 2014, dated 2020):

Tested on: larvae of Aedes aegypti mosquitoes of the PAEA laboratory strain
Assay: Larvicidal in-cup trial on larvae, protocol adapted from WHO protocols
Format: in vivo
Settings: for LD50 (SE) At 24 h / LD90 (SE) At 24 h / LD50 (SE) At 48 h / LD90 (SE) At 48 h: larval mortality, stage 3-4 larvae, PAEA strain; for LD50 (SE) At 24 h / LD90 (SE) At 24 h: 24 h after exposure; for LD50 (SE) At 48 h / LD90 (SE) At 48 h: 48 h after exposure; for minimum concentration corresponding to an effective amount (100% mortality): 100% mortality of larvae at 24 h
From the text: For the purposes of the present invention, the expression “agent that is insecticidal/larvicidal with respect to a mosquito strain” is intended to mean a compound which results in the death of the mosquito larvae placed in the presence of this compound, for example in the context of an in-cup trial carried out according to the protocol recommended by the WHO (Guidelines for Laboratory and Field Testing of Mosquito Larvicides, WHO/CDS/WHOPES/GCDPP/2005.13, 2005), and for which, according to the WHO criteria for validating the tests, the mortality in the control batches is less than 20%.
The biological trials were carried out on larvae of Aedes aegypti mosquitoes of the PAEA laboratory strain sensitive to all insecticides. The protocol described hereinafter was adapted according to the WHO protocols.
This strain originating from French Polynesia has been maintained for about ten years at the insectarium of the Institut Pasteur of Guyana, in Cayenne. The mosquitoes were bred under natural conditions: temperature of 28° C.±2° C., humidity of 80%±20%, and daytime duration 12:12 h±20 min during the year. The Aedes aegypti eggs were kept dry on strips of blotting paper at the insectarium temperature. Hatching was carried out by placing these strips in water under a vacuum bell jar for at least 20 min. The larvae thus obtained were fed with yeast tablets. The larvae at growth stage 3-4 were then used for the extract and constituent activity tests. 100 larvae were transferred into plastic cups containing 99 ml of distilled water. Four cups per concentration (4×25 larvae) and at least 5 concentrations of each extract or constituent diluted in ethanol (crude extract of Sextonia rubra: 1, 2, 3, 4, 5, 7, 10, 25, 35, 50, 75, 100 μg/ml, rubrenolide: 0.1, 0.3, 0.5, 0.7, 1, 1.5, 2 μg/ml, rubrynolide: 0.1, 0.3, 0.5, 0.7, 1, 1.5, 4, 6, 8 μg/ml) were used to measure mortalities ranging from 0 to 100%. Each concentration of extract or of constituent (1 ml) was added to the cup. Controls were also carried out by adding 1 ml of ethanol to the cup. The mortality was evaluated at 24 h and 48 h after exposure of the larvae to the test product (crude extract, isolated constituent, ethanol).

Compound | LD50 (SE) At 24 h | LD90 (SE) At 24 h | LD50 (SE) At 24 h (listed as spinosad) [µg/mL] | LD50 (SE) At 48 h | LD90 (SE) At 48 h | minimum concentration corresponding to an effective amount (100% mortality) [µg/mL] | LD50 (SE) At 24 h (listed as rubrynolide) [µg/mL] | LD50 (SE) At 24 h (listed as rubrenolide) [µg/mL]
spinosad [reference compound] | 0.387 (0.025) μg/ml | 1.118 (0.065) μg/ml | 0.4 | 0.193 (0.020) μg/ml | 0.444 (0.028) μg/ml |  |  | 
C#CCCCCCCCC[C@@H]1C[C@H](C[C@@H](O)CO)C(=O)O1 [Rubrynolide, rubrynolide] | 3.840 (0.018) μg/ml | 8.909 (0.031) μg/ml |  | 2.105 (0.023) μg/ml | 8.200 (0.043) μg/ml | 17 | 3.8 | 
COP(=O)(OC)OC=C(Cl)Cl [Dichlorvos, dichlorvos, reference compound] | 0.039 (0.012) μg/ml | 0.064 (0.026) μg/ml |  | 0.029 (0.012) μg/ml | 0.049 (0.020) μg/ml |  |  | 
C=CCCCCCCCC[C@@H]1C[C@H](C[C@@H](O)CO)C(=O)O1 [Rubrenolide, rubrenolide] | 0.605 (0.023) μg/ml | 2.110 (0.041) μg/ml |  | 0.300 (0.024) μg/ml | 0.788 (0.027) μg/ml | 2 |  | 0.6
